Laboratory results reported in ChEMBL document CHEMBL1201862, “PubChem BioAssay data set” (2004).
The source made the active and inactive calls. Unless noted, no cut-off for these calls is given here.

Assays:
[1] = inhibitors of PGC1a acetylation in cells, dose response, cell-based, cherry-picked samples (AID 720514); assay type: functional;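 note: potency may reflect raised or lowered acetylation signal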
[2] = U-251 glioblastoma cell viability loss, dose response, HRAS target identification, Alamar Blue fluorescence, 8/24/48 h, dry powder (AID 720605); assay type: functional, cell-based
[3] = SNB-75 astrocytoma cell viability loss, late-stage follow-up, mechanism study for HRAS target identification, CellTiter-Glo ATP luminescence, several timepoints, dry powder (AID 720624); assay type: functional, cell-based
[4] = C2C12 myoblast ATP-based viability loss, dose response, cytotoxicity control for HRAS target identification, cell-based, CellTiter-Glo ATP luminescence, 8/24/48 h, dry powder (AID 720603); assay type: functional
[5] = SR lymphoma cell viability over time, late-stage follow-up, mechanism study for HRAS target identification, CellTiter-Glo ATP luminescence, 8-48 h, dry powder (AID 720608); assay type: functional, cell-based
[6] = CCRF-CEM leukemia cell viability loss, dose response, HRAS target identification, CellTiter-Glo ATP luminescence, 8/24/48 h, dry powder (AID 720607); assay type: functional, cell-based
[7] = HT-29 colorectal cell cytotoxicity over time, dose response, HRas target identification project, CellTiter-Glo, multiple timepoints, dry powder (AID 720598); assay type: functional, cell-based
[8] = LOX IMVI melanoma cell viability loss, dose response, HRAS target identification, CellTiter-Glo ATP luminescence, 8/24/48 h, dry powder (AID 720602); assay type: functional, cell-based
[9] = Artemis endonuclease inhibitor potency, dose response, biochemical, fluorescence intensity (AID 720701); assay type: functional;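 note: Artemis endonuclease enzyme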
[10] = inhibitors of non-replicating M. tuberculosis, dose response, luciferase, dry powder (AID 651620); assay type: functional; conditions: Mycobacterium tuberculosis
[11] = inhibitors of non-replicating M. tuberculosis, dose response, luciferase, dry powder (AID 651619); assay type: functional; conditions: Mycobacterium tuberculosis
[12] = molecular target: RNA-editing ligase 1, mitochondrial (Trypanosoma brucei brucei, UniProt P86926); test: TbREL1 ligase inhibitors, dose response, biochemical, fluorescence, Trypanosoma brucei (AID 1117295); assay type: functional
[13] = cytotoxicity toward Colo320 cells – cell-based, CellTiter-Glo luminescence, IC50, dose response (AID 1117334); assay type: functional; conditions: COLO 320
[14] = RKO cell viability reduction, dose response, CellTiter-Glo luminescence (AID 1117322); assay type: functional
[15] = CellTiter-Glo luminescent dose response of DLD-1 viability loss (AID 1117352); assay type: functional
[16] = Concentration-dependent survival of SW480 colon cancer line, luminescence detection with CellTiter-Glo, half-maximal inhibitory concentration (AID 1117338); assay type: functional
[17] = cytotoxicity toward HCT116 cells – cell-based, CellTiter-Glo luminescence, IC50, dose response (AID 1117332); assay type: functional; conditions: HCT-116
[18] = SNU-C1 cell viability reduction, dose response, CellTiter-Glo luminescence (AID 1117323); assay type: functional, cell-based
[19] = HCT116 cell viability decrease, GSK3B pretreatment – CellTiter-Glo, IC50, dose response (AID 1117339); assay type: functional; conditions: HCT-116
[20] = cytotoxicity toward HT-29 cells – cell-based, CellTiter-Glo luminescence, IC50, dose response (AID 1117330); assay type: functional
[21] = molecular target: Potassium channel subfamily K member 9 (Homo sapiens, UniProt Q9NPC2); test: KCNK9 (TASK3) current inhibition by patch clamp, SAR follow-up, selectivity assay for TASK1 (KCNK3) inhibitor project, cell-based, automated electrophysiology (AID 652210); assay type: functional
[22] = molecular target: Potassium channel subfamily K member 3 (Homo sapiens, UniProt O14649); test: TASK1 (KCNK3) potassium channel inhibitors, SAR follow-up, CHO cells, FluxOR thallium flux (AID 652212); assay type: functional
[23] = molecular target: T1, CAAX prenyl protease 2 (Saccharomyces cerevisiae S288c, UniProt Q03530); assay type: biochemical
T1 sequence (Q03530 whole entry): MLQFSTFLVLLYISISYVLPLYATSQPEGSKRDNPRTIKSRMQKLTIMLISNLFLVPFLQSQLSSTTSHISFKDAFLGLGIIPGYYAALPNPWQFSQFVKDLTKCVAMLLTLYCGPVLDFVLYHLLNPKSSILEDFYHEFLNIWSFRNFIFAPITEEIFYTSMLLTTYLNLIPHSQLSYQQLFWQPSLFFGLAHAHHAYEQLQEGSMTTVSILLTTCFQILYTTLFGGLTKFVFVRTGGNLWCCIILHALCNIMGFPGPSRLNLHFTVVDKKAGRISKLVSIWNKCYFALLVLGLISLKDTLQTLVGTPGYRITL

[24] = molecular target: T2, CAAX prenyl protease 2 (Homo sapiens, UniProt Q9Y256); test: human Rce1 protease inhibitors, dose response, biochemical, yeast membranes, quenched-peptide fluorescence, cherry-pick (AID 588849)
T2 sequence (Q9Y256 whole entry): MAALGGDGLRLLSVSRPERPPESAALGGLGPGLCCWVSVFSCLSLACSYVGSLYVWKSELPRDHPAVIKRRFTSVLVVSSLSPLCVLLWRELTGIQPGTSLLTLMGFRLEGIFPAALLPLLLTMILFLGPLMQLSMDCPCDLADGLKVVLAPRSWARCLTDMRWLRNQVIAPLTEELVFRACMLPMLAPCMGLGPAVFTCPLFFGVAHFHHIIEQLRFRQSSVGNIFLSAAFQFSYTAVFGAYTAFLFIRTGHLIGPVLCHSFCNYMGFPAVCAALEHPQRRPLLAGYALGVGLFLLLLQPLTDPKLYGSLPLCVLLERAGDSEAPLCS

[25] = cells; conditions: HEK293
[26] = molecular target: Trypsin (Sus scrofa, UniProt P00761); test: porcine trypsin inhibitors, dose response, selectivity assay for Rce1 protease inhibitor project, biochemical, quenched peptide fluorescence, cherry-pick (AID 488789)
[27] = cells
[28] = HepG2 cell cytotoxicity, dose response, cytotoxicity control, ATP luminescence, cherry-pick, set 6 (AID 1053125); assay type: functional, cell-based

Potassium channel subfamily K member 3, sequence (O14649 whole entry): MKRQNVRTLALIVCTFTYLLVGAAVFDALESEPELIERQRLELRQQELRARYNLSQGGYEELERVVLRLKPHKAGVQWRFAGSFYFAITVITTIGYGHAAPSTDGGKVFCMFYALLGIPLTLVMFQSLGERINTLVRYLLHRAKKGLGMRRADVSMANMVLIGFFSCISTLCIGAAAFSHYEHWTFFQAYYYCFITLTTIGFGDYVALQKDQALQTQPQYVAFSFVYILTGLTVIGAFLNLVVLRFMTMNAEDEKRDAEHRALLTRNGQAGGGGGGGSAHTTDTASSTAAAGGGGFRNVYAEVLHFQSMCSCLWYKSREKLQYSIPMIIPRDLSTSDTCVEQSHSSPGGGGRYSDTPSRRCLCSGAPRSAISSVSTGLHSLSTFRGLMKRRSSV
Trypsin, sequence (P00761 whole entry): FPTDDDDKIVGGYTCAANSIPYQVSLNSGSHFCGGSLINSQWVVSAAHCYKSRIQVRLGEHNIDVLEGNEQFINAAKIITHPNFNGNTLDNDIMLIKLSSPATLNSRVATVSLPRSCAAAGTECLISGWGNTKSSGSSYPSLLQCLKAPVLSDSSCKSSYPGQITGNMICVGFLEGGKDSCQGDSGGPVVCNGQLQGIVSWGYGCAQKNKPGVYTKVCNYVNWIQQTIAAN
Potassium channel subfamily K member 9, sequence (Q9NPC2 whole entry): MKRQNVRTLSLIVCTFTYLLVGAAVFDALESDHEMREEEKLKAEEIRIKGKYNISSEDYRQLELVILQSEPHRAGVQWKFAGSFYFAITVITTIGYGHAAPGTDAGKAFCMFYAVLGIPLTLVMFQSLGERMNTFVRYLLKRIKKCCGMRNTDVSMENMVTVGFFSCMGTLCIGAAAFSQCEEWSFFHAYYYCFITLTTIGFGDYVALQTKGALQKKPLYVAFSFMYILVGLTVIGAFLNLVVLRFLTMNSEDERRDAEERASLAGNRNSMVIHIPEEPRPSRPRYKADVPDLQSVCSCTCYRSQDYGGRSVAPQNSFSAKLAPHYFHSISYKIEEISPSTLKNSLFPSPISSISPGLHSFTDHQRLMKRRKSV
RNA-editing ligase 1, mitochondrial, sequence (P86926 whole entry): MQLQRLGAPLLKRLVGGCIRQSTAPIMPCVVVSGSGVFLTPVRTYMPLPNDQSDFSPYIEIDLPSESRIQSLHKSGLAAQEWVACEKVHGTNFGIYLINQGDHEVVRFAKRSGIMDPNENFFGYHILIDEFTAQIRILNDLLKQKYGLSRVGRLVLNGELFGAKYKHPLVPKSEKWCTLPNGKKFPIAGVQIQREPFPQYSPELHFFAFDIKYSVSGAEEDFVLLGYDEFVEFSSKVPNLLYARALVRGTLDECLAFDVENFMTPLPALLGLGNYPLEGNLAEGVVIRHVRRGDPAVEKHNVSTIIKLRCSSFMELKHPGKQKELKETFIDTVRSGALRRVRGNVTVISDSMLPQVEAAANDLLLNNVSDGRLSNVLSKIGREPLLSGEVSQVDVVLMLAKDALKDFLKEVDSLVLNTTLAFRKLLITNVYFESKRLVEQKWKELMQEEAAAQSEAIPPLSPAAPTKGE

In the case of `COC(=O)[C@@]1(Cc2ccccc2CN=[N+]=[N-])N=C(c2ccc(OCCCO)cc2)O[C@H]1c1ccccc1`, the AC50 [1] is reported as 17.4 µM (active).
For `COC(=O)c1ccc([C@@H]2c3[nH]c4ccccc4c3C[C@@H](C(=O)OC)N2C(=O)CCl)cc1`, the AC50 [2] was 0.0342 µM (active), the AC50 [3] was 0.374 µM (active) and the AC50 [4] was 0.233 µM (active). For the same compound, the AC50 [5] was 0.0492 µM (active), the AC50 [6] was 0.105 µM (active) and the AC50 [7] was 0.235 µM (active). The AC50 [8] was 0.0709 µM (active).
In the case of `N#Cc1nc(-c2ccc(OCc3ccc(Cl)cc3)cc2)oc1NCCCn1ccnc1`, the IC50 [9] is reported as 4.52 µM (active).
With `CCSc1nnc(-c2ccccc2)o1` the IC90 [10] was 31 µM (active) and the IC90 [11] was 31 µM (active).
With `C[C@@H](NCCCn1cnc2c(OCc3ccccc3)ncnc21)c1cccc2ccccc12` the IC50 [12] was > 96.6 µM (inactive).
In the case of `NC(=O)n1c(O)c(C(=O)c2cccs2)c2cc(Cl)ccc21`, the IC50 [13] is reported as 1.64 µM (active), the IC50 [14] is reported as 4.7 µM (active) and the IC50 [15] is reported as 6.95 µM (inactive). The IC50 [16] was 1.02 µM (active), the IC50 [17] was 2.31 µM (active) and the IC50 [18] was 0.537 µM (active). The IC50 [19] was 3.79 µM (active) and the IC50 [20] was 5.6 µM (inactive).
For `COc1ccccc1C(=O)Nc1cc(NC(=O)c2ccccc2C(C)C)ccc1F`, the IC50 [21] was 0.71 µM (active) and the IC50 [22] was 0.109 µM (active).
For `COC(=O)C1=CN(CC2CCCO2)C=C(C(=O)OC)C1c1cccc(O)c1` (stereo not drawn), the AC50 [23] was 10.6 µM (active), the AC50 [24] was 2.08 µM (active) and the AC50 [25] was > 52 µM (inactive). For the same compound, the AC50 [26] was 9.88 µM (active), the AC50 [27] was 11.1 µM (active) and the AC50 [28] was > 52 µM (inactive).
